The target of one assay is T1, human CYP17 (Homo sapiens, UniProt P05093).
T1 construct: purchased Premas Biotech, India; host or cells: yeast (microsomes)
T1 sequence (P05093 1-508): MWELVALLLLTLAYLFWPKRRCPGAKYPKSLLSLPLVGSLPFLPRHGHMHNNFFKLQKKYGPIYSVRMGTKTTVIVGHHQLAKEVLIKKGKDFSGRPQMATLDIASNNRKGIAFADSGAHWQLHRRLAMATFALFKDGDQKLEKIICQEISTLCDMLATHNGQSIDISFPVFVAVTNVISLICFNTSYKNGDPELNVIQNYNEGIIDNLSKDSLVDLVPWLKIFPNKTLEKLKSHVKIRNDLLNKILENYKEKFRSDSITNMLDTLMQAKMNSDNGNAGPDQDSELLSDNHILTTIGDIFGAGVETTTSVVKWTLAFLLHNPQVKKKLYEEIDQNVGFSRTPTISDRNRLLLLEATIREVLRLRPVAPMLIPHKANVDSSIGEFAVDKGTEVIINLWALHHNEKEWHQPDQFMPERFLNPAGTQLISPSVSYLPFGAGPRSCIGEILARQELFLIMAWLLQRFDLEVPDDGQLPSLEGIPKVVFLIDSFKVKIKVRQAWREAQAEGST
Put plainly: CYP17 inhibition assay in yeast microsomes overexpressing human CYP17. It counts as biochemical. Conditions: yeast microsomes expressing human CYP17. On the procedure: CYP17 Inhibition Assay in Rat Testicular Microsomes (Rat CYP17) or Yeast Microsome Overexpressing Human CYP17
1. NADPH (Sigma): A working stock was prepared by adding 25 μL of 6.5 mM NADPH in each tube. The final concentration of NADPH used in the assay was 325 μM.
2. Potassium Phosphate Buffer: One molar (1M) solutions of K2HPO4 and KH2PO4 were prepared. Eight mL of the 1 M KH2PO4 and 1.98 mL of the 1 M K2HPO4 were combined and the pH was adjusted to 7.4.
3. ^3H3-17α-hydroxypregnenolone (American Radiolabeled Chemicals, Inc., stock 1 μCi/μL): A 1:1 dilution of ^3H3-17α-hydroxypregnenolone in ethanol was prepared by combining 100 μL ^3H3-17α-hydroxypregnenolone+100 μL ethanol for one complete 96 well plate. For the reaction, 2 μL of the diluted ^3H3-17α-hydroxypregnenolone was added in each tube, i.e., 1 μCi/reaction. 4. Microsome Isolation Buffer: The microsome isolation buffer was prepared by combining 250 mM Sucrose, 5 mM EDTA, 10 mM Tris HCl, 4 mM DTT, and adjusting to pH 7.4. 5. TEG Buffer: The TEG buffer was prepared by combining 50 mM Tris HCl, 1 mM EDTA, and 20% Glycerol. 6. Rat Testicular Microsomes: Rat testis tissue was collected and disrupted with 30 strokes of a glass homogenizer on ice with 250 μL of microsome isolation buffer, followed by centrifugation at 10,000 g for 10 minutes at 4° C. The supernatant was collected and centrifuged at 100,000 g for 45 minutes at 4° C. The pellet was dissolved in TEG Buffer and the protein was quantified. The homogenized microsome samples were then frozen at −80° C. • 7. Yeast Microsomes which overexpress the human CYP17 enzyme were obtained from Premas Biotech, India.
Potassium phosphate buffer (470 μL) was prepared as described above and was added to each well of a deep well plate. The test compound was diluted using a TECAN liquid handler and 5 μL of diluted compound was transferred to each well (96 deep well/1 mL). A solution (25 μL) of 6.5 mM NADPH was added (final concentration of 325 μM in the assay). ^3H3-17α-hydroxypregnenolone (2 μL of the working stock) was added to each tube. The plates were then pre-incubated for 15 minutes at 37° C. Following the pre-incubation, either 5 μL rat testicular microsomes (150-160 μg) or 5 μL of yeast microsomes expressing human CYP17 (1.7 pmol), was added. Incubation was at 37° C. for 60 minutes in the presence of oxygen. The plates were then placed in ice and chloroform (500 μL) was added, mixed well and incubated at 4° C. for 20 minutes. The plates were then centrifuged at 1000 rpm for 15 minutes at 4° C.
A portion (300 μL) of the aqueous solution was collected and mixed with a 5% aqueous suspension of activated charcoal (300 μL). The plates were then incubated at 4° C. for 30 minutes, after which the plates were centrifuged at 1000 rpm for 15 minutes at 4° C. From this, 125 μL of the aqueous solution was collected and plated into a 96 well plate. Microscint™ 40 [125 μL, Perkin-Elmer; containing a mixture of a polymer based on alkylphenolethoxylate (20-40%), diethanolamine-phosphoric acid ester ammonium salt (10-20%), sodium dioctyl sulphosuccinate (2.5-10%), triethyl phosphate (2.5-10%), 3,6-dimethyl-4-octyne-3,6-diol (≦2.5%), a polymer based on nonylphenolethoxylate (≦2.5%), diisopropyl naphthalene isomers (40-60%), 2,5-diphenyloxazole (≦2.5%), and 9,10-dimethylanthracene] was added and mixed well. After 30 minutes of incubation, the samples were analyzed with a MicroBeta® Trilux microplate liquid scintillation counter and luminometer (Perkin-Elmer).

In assay [1] the test system is prostate and seminal vesicle weights. Put plainly: In vivo reduction of prostate and seminal vesicle weights. On the set-up: species or system rat. Conditions: male rats. On the procedure: In vivo Reduction of Prostate and Seminal Vesicle Weights Male rats aged 8 to 10 weeks old (5 animals per group) were dosed orally with compounds once or twice a day at 12-hour intervals for 14 days. On day 14 the animals were euthanized and organs were surgically removed for wet weight determination including the prostate, seminal vesicles and testes.

The subject of assay [2] is testosterone production in H295R cells. The experiment in a line: Cell-based functional assay for testosterone production. On the set-up: species or system human. On the procedure: Cell-Based Functional Assay for Testosterone Production
H295R cells (ATCC Number CRL-2128) were subcultured, seeded (30,000 cells per well in a poly-d lysine plate) and left overnight at 37° C. The next day (after approximately 24 hours), the media were removed and 200 μL fresh media were added. Then, 50 μL of serially diluted compounds was added from a 5× plate. The serial dilution in the 100× plate (in DMSO) and the stamping of a 5× plate (in media) from the 100× plate were carried out using a TECAN liquid handling device. The plate was incubated at 37° C. for 72 hours. After incubation, the media was removed, diluted 5 to 10 times with calibration diluent RD5-48, and the assay performed as per manufacturer's protocol (Parameter Testosterone Assay, Cat. No. KGE010, R&D systems; http://www.mdsystems.com/pdf/KGE010.pdf).

Setting [3] is: 30 mg/kg orally twice a day for 14 days.
Setting [4] is: Homo sapiens, NCI-H295R, 72 h, read-out: Testosterone (human H295R adrenal cells), H295R cells, 72 hours.
[5] abbreviates: read-out: Testosterone (human H295R adrenal cells), H295R cells, 72 hours.
The mark [6] stands for this setting: Homo sapiens, NCI-H295R, 72 h, read-out: Testosterone (human H295R adrenal cells).
Setting [7] is: 30 mg/kg orally once a day for 14 days.

Structures are written as SMILES. Like-named read-outs stand apart in the source and are kept apart here.

Compound `Cn1cc(-c2ccc(C(C)(O)c3ccncc3)s2)ccc1=O` (single isomer, unassigned; (-)) [Example 17, (−)-5-(5-(1-hydroxy-1-(pyridin-4-yl)ethyl)thiophen-2-yl)-1-methylpyridin-2(1H)-one] gave an IC50 against human CYP17 of 0.05 to 0.2 µM. For the same compound, the “reduction of prostate weight” value in assay [1] (setting [3]) was “about 50%”. At human CYP17, `Cn1cc(-c2ccc(C(C)(O)c3ccncc3)s2)ccc1=O` (stereo not shown) [Example 15, 5-(5-(1-Hydroxy-1-(pyridin-4-yl)ethyl)thiophen-2-yl)-1-methyl-pyridin-2(1H)-one] registered an IC50 of 0.201 to 10 µM. As to `COc1ccc(-c2ccc(C(C)(O)c3ccncc3)nc2)cc1` (single isomer, unassigned) [Example 3, 1-(5-(4-methoxyphenyl)-pyridin-2-yl)-1-(pyridin-4-yl)ethanol], the IC50 in assay [2] (setting [4]) lay in the range of 0.05 to 0.2 µM. With `CC(O)(c1ccncc1)c1cnc(-c2ccc(F)cc2)s1` (single isomer, unassigned) [Example 8, 1-(2-(4-fluorophenyl)thiazol-5-yl)-1-(pyridin-4-yl)ethanol], the results for the IC50 (at human CYP17; in assay [2] (setting [4])) were 0.201 to 10 µM and 0.05 to 0.2 µM, respectively. At human CYP17, `CC(O)(c1ccncc1)c1nc(-c2ccc(F)cc2)no1` (single isomer, unassigned; (+)) [Example 36, (+)-1-(3-(4-fluoro-phenyl)-1,2,4-oxadiazol-5-yl)-1-(pyridin-4-yl)ethanol] gave an IC50 of under 0.05 µM. Further, the “reduction of prostate weight” value in assay [1] (setting [3]) was “about 50%”.

Turning to `CC(O)(c1ccncc1)c1cnc(-c2ccc(F)cc2)s1` (single isomer, unassigned) [Example 9, 1-(2-(4-fluorophenyl)thiazol-5-yl)-1-(pyridin-4-yl)ethanol], the values for the IC50 (on human CYP17; in assay [2] (setting [5])) were 0.05 to 0.2 µM and under 0.05 µM, respectively. The compound `CC(O)(c1ccncc1)c1cnc(-c2ccc(F)cc2)s1` (racemic) [Example 7, 1-(2-(4-Fluorophenyl)thiazol-5-yl)-1-(pyridin-4-yl)ethanol] came in with an IC50 against human CYP17 of 0.05 to 0.2 µM. The IC50 in assay [2] (setting [6]) was under 0.05 µM. Besides, in assay [1] (setting [7]), the “reduction of prostate weight” value was “about 50%” and the “reduction of seminal vesicle weight” value is reported as “about 60%”. With `CC(O)(c1ccncc1)c1nc(-c2ccc(F)cc2)no1` (stereo not shown) [Example 34, 1-(3-(4-Fluorophenyl)-1,2,4-oxadiazol-5-yl)-1-(pyridin-4-yl)ethanol], in assay [1] (setting [3]), the “reduction of prostate weight” value was “about 50%”. As for `COc1ccc(-c2ccc(C(C)(O)c3ccncc3)nc2)cc1` (single isomer, unassigned) [Example 2, 1-(5-(4-methoxyphenyl)-pyridin-2-yl)-1-(pyridin-4-yl)ethanol], the IC50 in assay [2] (setting [5]) fell in the range of 0.05 to 0.2 µM. In the case of `CCC(O)(c1ccncc1)c1cnc(-c2ccc(F)cc2)s1` (stereo not shown) [Example 4, 1-(2-(4-fluorophenyl)-thiazol-5-yl)-1-(pyridin-4-yl)propan-1-ol], the IC50 in assay [2] (setting [4]) is under 0.05 µM. Turning to `COc1ccc(-c2ccc(C(C)(O)c3ccncc3)nc2)cc1` (racemic) [Example 1, 1-(5-(4-Methoxyphenyl)pyridin-2-yl)-1-(pyridin-4-yl)ethanol], the IC50 at human CYP17 is 0.201 to 10 µM; in assay [2] (setting [6]) it was 0.05 to 0.2 µM.

The record behind these values is US8809372B2, “Pyridine derivatives” (Endo Pharmaceuticals, Inc., priority 2011, dated 2014).
